Key:
Omm1.3 cells [1] = test: Transwell migration assay; format: cell-based; conditions: HCM+UM-exo as chemoattractant, 24 hrs, 25 μM ibudilast, 10 μM diacerein, 1.0 μM reparixin, 0.25 μM crizotinib
Description: FIG. 1A depicts trans-well migration assay results in which Omm1.3 cells were stimulated with hepatocyte conditioned media and uveal melanoma exosomes (HCM+UM-exo) in the presence of vehicle (DMSO), 10 μM diacerein, 1.0 μM reparixin, 0.25 μM crizotinib or 25 μM ibudilast.
FIG. 1B depicts migrated cell count under the microscope from the trans-well migration assay, three fields for each condition. Experiments were repeated three times ±sd, p<0.001.
Exosome isolation. Exosomes were isolated from UM cell lines kept in serum-free media for 24 hrs. The media was collected and subjected to serial centrifugation steps starting with a spin at 3,000×g to remove dead cells and cell debris. The supernatant from this step is spun at 20,000×g to pellet microvesicles and large EVs. Lastly, the supernatant from this step is centrifuged at 100,000×g to pellet the exosome fraction.
Transwell migration assay. The in vitro migration assays were performed with 5×104 Omm1.3 cells seeded in 500 μL serum-free medium on BioCoat Matrigel Invasion Chambers (BD Biosciences). The conditioned media of the hepatocytes treated or untreated with UM-exosome was used as chemoattractant in the lower chamber. The cells were also treated with vehicle (DMSO), 0.25 μM crizotinib or 25 μM ibudilast for 24 hrs. […] Images of stained cells were taken through a microscope and quantified by counting cells in triplicate samples.

MP41 cells = test: Wound healing (scratch) assay, MP41; format: cell-based; conditions: exposed to HCM+UM-exo; data not shown
Description: (§1) Wound healing assay. Omm1.3 and MP41 cells were scratched with a sterile 200 μL pipette tip. Cells were washed in PBS and replaced with fresh RPMI 1640 complete media, or hepatocyte conditioned media (HCM) pretreated with UM-exo. Images of the wounded area were recorded using an inverted phase-contrast microscope at the indicated time points.

MIF = test: Plasma level of MIF; conditions: found by the inventors; no method given
GFP-Luc-Omm1.3 cells = test: Metastatic uveal melanoma (UM) mouse model; format: in vivo; conditions: UM-exosome-educated mice, 7.5 mg/kg ibudilast i.p. daily
Description: FIG. 2A depicts quantification of bioluminescence intensity for each mouse in the abdominal region, while excluding bioluminescence in the eyes, in an evaluation of ibudilast in a metastatic UM mouse model. […] FIG. 2B depicts representative images of H&E-stained mouse liver sections from the metastatic UM mouse model. Mice were injected intravenously with vehicle (PBS) or 10 μg UM-exosome isolated from […] in 100 μL PBS for 7 days. Subsequently, GFP-Luc-Omm1.3 cells were retro-orbitally injected in the mice as described in Surriga et al. (Mol. Cancer Ther., 2013, 12:2817-26). Ibudilast was dissolved to a concentration of 1 mg/ml in physiological saline containing 10% v/v of polyoxyethylene hydrogenated castor oil 60 (HCO60). A week later, the mice were treated daily with vehicle or 7.5 mg/kg ibudilast i.p. and monitored for the development of metastasis. […] The mice were monitored weekly for luminescence with luciferin (Gold Biotechnology). After 7 weeks the livers and lungs were collected and analyzed for luminescence. Experiments were carried out under an Institutional Animal Care and Use Committee—approved (IACUC) protocol, and Institutional guidelines for the proper and humane use of animals were followed. Statistical significance was determined by 2-sample Student t-test.

[2] = Sanftner et al Xenobiotica 2009; cited from earlier work
Omm1.3 cells [3] = test: Wound healing (scratch) assay, Omm1.3; format: cell-based; conditions: exposed to HCM+UM-exo, 25 μM ibudilast, 48 hours
Description: as §1, with “FIG. 1C depicts Omm1.3 cells in scratch assays, in which after the scratch, the cells were incubated with control HCM or with HCM of hepatocytes exposed to UM-exosomes with or without 25 μM ibudilast. Pictures were taken at zero time-point or after 48 hours under a microscope at 10× magnification. Wound” for “Wound”

CC(C)C(=O)c1c(C(C)C)nn2ccccc12 [ibudilast, 2-methyl-1-(2-(1-methylethyl)pyrazolo(1,5-a)pyridin-3-yl)1-propanone]
UM cell migration toward UM-exosome-stimulated hepatocyte conditioned media (HCM) (Omm1.3 cells [1]): dramatically inhibited cell migration | wound healing ability of UM cell line MP41 (MP41 cells): suppressed the wound healing ability | plasma level of MIF (MIF): lowers plasma level of MIF | metastatic spread (bioluminescence signal intensity in the abdominal region) (GFP-Luc-Omm1.3 cells): showed inhibition of metastatic spread | presence of cancer cell clusters in liver sections (H&E staining) (GFP-Luc-Omm1.3 cells): not in the livers | bioluminescence in lungs and livers at necropsy (GFP-Luc-Omm1.3 cells; after 7 weeks): no bioluminescence signal in organs | CNS penetration [2]: good. CNS penetration | wound healing ability of UM cell line Omm1.3 (Omm1.3 cells [3]): suppressed the wound healing ability

— patent US12005049B2, “Methods of preventing cancer metastasis” (MediciNova, Inc., priority 2021, dated 2024)
